Reference: PubChem BioAssay (NCI)
Values joined by “and” are separate entries in the source; they are usually repeats but may differ in a detail not shown here. Identical values can stand only once.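 Dose response: 5 concentrations. Exposure: 48 h. Format: 96-well plates. Endpoint: linear interpolation; highest concentration if not reached. GI50 = concentration required for 50% inhibition of growth. TGI denotes the concentration required for complete inhibition of growth.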

Assays:
Assay in all cases: inhibition of tumour cell growth, NCI panel, 48 h
SK-OV-3 ovarian = test system: SK-OV-3 ovarian
MALME-3M melanoma = test system: MALME-3M melanoma
KM12 colon = test system: KM12 colon
SR leukemia = test system: SR leukemia
SK-MEL-2 melanoma = test system: SK-MEL-2 melanoma
CAKI-1 renal = test system: CAKI-1 renal
HL-60(TB) leukemia = test system: HL-60(TB) leukemia
UACC-257 melanoma = test system: UACC-257 melanoma
HOP-62 NSCLC = test system: HOP-62 NSCLC
NCI/ADR-RES ovarian = test system: NCI/ADR-RES ovarian

SMILES	TGI (SK-OV-3 ovarian)	TGI (MALME-3M melanoma)	TGI (KM12 colon)	TGI (SR leukemia)	TGI (SK-MEL-2 melanoma)	TGI (CAKI-1 renal)	TGI (HL-60(TB) leukemia)	TGI (UACC-257 melanoma)	TGI (HOP-62 NSCLC)	TGI (NCI/ADR-RES ovarian)	GI50 (SK-OV-3 ovarian)	GI50 (MALME-3M melanoma)	GI50 (KM12 colon)	GI50 (SR leukemia)	GI50 (CAKI-1 renal)	GI50 (HL-60(TB) leukemia)	GI50 (UACC-257 melanoma)	GI50 (HOP-62 NSCLC)	GI50 (NCI/ADR-RES ovarian)	GI50 (SK-MEL-2 melanoma)
CNC(=O)c1cccc2c(Nc3ccc(NS(C)(=O)=O)cc3OC)c3cccc(C)c3nc12	0.907 µM	4.55 µM	2.42 µM	0.365 µM	6.37 µM	1.41 µM	0.0552 µM	10.6 µM	0.155 µM	9.36 µM										
CC[C@@]1(O)C(=O)OCc2c1cc1n(c2=O)Cc2c-1nc1cc3c(cc1c2C)OCO3	0.25 µM and 0.331 µM	3.92 µM	> 100 µM	0.000207 µM	0.0271 µM	0.235 µM and 0.122 µM		0.278 µM	0.314 µM and 0.238 µM	> 100 µM	< 0.0001 µM	0.000457 µM	0.0241 µM	< 0.0001 µM	< 0.0001 µM	< 0.0001 µM	0.0159 µM	< 0.0001 µM	< 0.0001 µM	
C/C(=C(\c1ccc(OCCN2CCCCCC2)cc1)c1ccc(OC(=O)Cc2ccccc2)cc1)c1ccc(Cl)cc1	15.6 µM	5.71 µM	5.77 µM	6.87 µM	8.72 µM	5.37 µM	8.17 µM	6.22 µM	5.59 µM	6.86 µM	4.87 µM	2.86 µM	2.72 µM	0.556 µM	2.74 µM	3.5 µM	3.25 µM	2.67 µM	2.99 µM	3.98 µM
CSc1ncnc2c1ncn2C1OC(CO)C(O)OC1O (stereo unspecified)	> 100 µM	70.5 µM	36.8 µM	> 100 µM	18.9 µM	> 51.7 µM	11.7 µM	15.2 µM	35.4 µM	> 93.1 µM										
COC(=O)/C=C/c1cn(C(C)=O)c2ccc(Br)cc12	> 100 µM	> 88.8 µM	79.5 µM	> 100 µM	> 100 µM	44.2 µM	> 100 µM	> 100 µM	> 73.5 µM	> 100 µM	32.4 µM	24.9 µM	25.3 µM	32.5 µM	19.1 µM	15.3 µM	35.6 µM	25 µM	29.4 µM	29.5 µM
COc1ccc(-c2c(-c3cc(OC)c(OC)c(OC)c3)noc2N)cc1	16.5 µM	56.8 µM	> 36.6 µM	29.1 µM	81.4 µM	> 100 µM	0.0589 µM	> 100 µM	38.9 µM	0.0226 µM	< 0.011 µM	13.4 µM	< 0.01 µM	< 0.01 µM	< 0.01 µM	0.0215 µM	< 0.01 µM	0.0239 µM	< 0.01 µM	0.0188 µM
COc1cc(-c2ncn(/C=C\C(=O)OC(C)C)n2)cc(C(F)(F)F)c1	16.9 µM and 15.1 µM	12.9 µM and 15.3 µM	12.2 µM and 4.32 µM	14.3 µM and > 100 µM	1.53 µM and 0.489 µM	12.7 µM and 5.52 µM	4.58 µM and 4.07 µM	11.8 µM and 14.4 µM	3.46 µM and 3.94 µM	11.5 µM and 12.7 µM	0.357 µM and 0.179 µM	0.149 µM and 0.147 µM	0.368 µM and 0.309 µM	0.0354 µM	0.0464 µM and 0.0331 µM	0.0515 µM and 0.051 µM	0.142 µM and 0.136 µM	0.295 µM and 0.262 µM	0.0658 µM and 0.0944 µM	0.0676 µM and 0.0501 µM
N#CS.N=C=S.N=C=S.[Cu+2].[NH2-].[NH2-].[NH2-].[NH2-].c1ccc2ncccc2c1	62.7 µM	> 100 µM	> 100 µM	> 100 µM	> 100 µM	> 100 µM	> 100 µM	> 100 µM	> 100 µM	> 100 µM	24.4 µM	> 100 µM	31.5 µM	> 100 µM	> 100 µM	> 100 µM	> 100 µM	36.9 µM	> 100 µM	> 100 µM
CCCCCCc1nc2nc(Cl)c(Cl)nc2[nH]1	> 100 µM	> 100 µM	> 100 µM	> 100 µM	> 100 µM	> 100 µM	> 100 µM	> 100 µM	> 100 µM	> 100 µM	> 100 µM	4.63 µM	6.88 µM	8.98 µM	6.37 µM	6.84 µM	3.02 µM	> 100 µM	6.92 µM	5.58 µM
COc1cccc2c1c(C1=C(c3cn(C)c4ccccc34)C(=O)NC1=O)cn2C	> 25 µM	> 25 µM	> 25 µM	> 25 µM	> 25 µM	> 25 µM	> 25 µM	> 25 µM	> 25 µM	> 25 µM	> 25 µM	> 25 µM	> 25 µM	> 16.6 µM	> 25 µM	> 25 µM	> 25 µM	> 25 µM	> 25 µM	> 25 µM
O=C(CCC(C(=O)c1ccccc1)c1ccccc1)c1ccccc1 (stereo unspecified)	> 100 µM	63.8 µM	> 100 µM	> 100 µM	46.7 µM	> 100 µM	55.9 µM	> 100 µM	> 100 µM	> 100 µM	78.8 µM	5.51 µM	3.94 µM	4.46 µM	5.7 µM	4.72 µM	17.5 µM	25.5 µM	4.74 µM	7.07 µM
CCCCCCCCCCCCCCCCOP(=O)(O)OP(=O)(O)OCC1OC(n2ccc(N)nc2=O)C(O)C1O (stereo unspecified)	> 100 µM	> 100 µM	> 100 µM	> 100 µM	> 100 µM	> 100 µM	> 100 µM	> 100 µM	> 100 µM	> 100 µM	> 100 µM and 48.7 µM	> 100 µM and 46.7 µM			> 100 µM and 26.1 µM				> 100 µM and 13.7 µM	
O=C(Nc1nc2ccc(F)cc2s1)c1cccnc1Nc1ccc(Cl)cc1	> 26.5 µM	> 27 µM	8.54 µM	9.31 µM	6.45 µM	> 30.8 µM	5.8 µM		9.08 µM	> 28.1 µM	2.49 µM	2.22 µM	2.61 µM	2.28 µM	2.56 µM	1.6 µM	0.677 µM	2.55 µM	2.36 µM	2.11 µM
O=c1c2c3c(sc2nc(N/N=C/c2ccc(Br)cc2)n1Cc1ccccc1)CCCC3	> 100 µM	> 100 µM	> 100 µM	> 100 µM	> 100 µM	> 100 µM	> 100 µM	> 100 µM	> 100 µM	> 100 µM	> 100 µM	42.7 µM	> 100 µM	4.98 µM	74.3 µM	9.26 µM	> 100 µM	7.7 µM	> 100 µM	6.08 µM
CCCCCCCCCCCCOC1C(C(CC(=O)N2CCN(c3cccc(C(F)(F)F)c3)CC2)NS(=O)(=O)c2cc(Cl)cc(Cl)c2)OC2OC(C)(C)OC21 (stereo unspecified)	> 100 µM	> 100 µM	> 100 µM	> 100 µM	> 100 µM	> 100 µM	> 100 µM	> 100 µM	> 100 µM	> 100 µM	> 100 µM	> 100 µM	> 100 µM	> 100 µM	> 100 µM	> 100 µM	> 100 µM	> 100 µM	> 100 µM	> 100 µM
O=C(NCc1ccncc1)C12CC3CC(C1)CC(c1ccc(Cl)cc1)(C3)C2	25.2 µM	27.4 µM	27.8 µM	35.7 µM	28.1 µM	24.9 µM	27.1 µM	25.1 µM	27.2 µM	87.8 µM	12.5 µM	13.3 µM	13.6 µM	7.98 µM	11.9 µM	5.58 µM	12.4 µM	14 µM	17.2 µM	14.2 µM
CC1=C([Te]c2ccc(O)cc2)C(=O)c2ccccc2C1=O	4.52 µM	7.12 µM	3.27 µM	2.67 µM	8.15 µM	7.41 µM	5 µM	10.4 µM	5.15 µM	8.3 µM	1.66 µM	2.79 µM	1.3 µM	0.461 µM	2.21 µM	1.83 µM	2.91 µM	0.9 µM	2.42 µM	2.78 µM
CCOC(=O)C(C)(C)C(O)C(C)C (stereo unspecified)	> 100 µM	> 100 µM	> 100 µM	> 100 µM	> 100 µM	> 100 µM	> 100 µM	> 100 µM	> 100 µM	> 100 µM										
CCOC(=O)[C@@H](C)C[C@H](Cc1ccccc1)NC(=O)c1csc([C@@H](C[C@H](C(C)C)N(C)C(=O)[C@H](CC)NC(=O)[C@H]2CCCCN2C)OC(C)=O)n1	> 16.7 µM	> 16.7 µM	> 16.7 µM	> 16.7 µM	> 16.7 µM	> 16.7 µM	0.0114 µM	> 16.7 µM	> 16.7 µM	> 15.7 µM	< 0.00167 µM	< 0.00167 µM	< 0.00167 µM	< 0.00167 µM	< 0.00167 µM	< 0.00167 µM	> 16.7 µM	0.00367 µM	0.0675 µM	< 0.00167 µM
